{
  "source": "patent US6406843B1",
  "about": "“Poultry virus isolates and method” (University of Arkansas, priority 1998, dated 2002)",
  "format_in_all_cases": "in vivo, chicken",
  "key": {"[1]": {"system": "commercial broiler chickens", "test": "AC-ELISA for IBDV in tissue homogenates of challenged broilers", "conditions": "broilers challenged 35 d post hatch", "description": "Broiler chickens were challenged or, day 35 post hatch (PH) with the USDA/STC IBDV prepared inoculum as described previously. Infectious bursal disease virus challenge was administered to each individual bird bilaterally to the eye (30 μl per eye) using an Eppendorf micropipettor (Brinkmann Inc., Westbury, N.Y.) and a sterile pipette tip (Costar Corp., Cambridge, Mass.).\n(§1) On days 4 and 11 post challenge 25 birds were necropsied from each virus challenge group and an additional 10 birds from the negative control. Each bird was weighed, bled, and euthanized by CO2 asphyxiation. All birds were necropsied at which time the bursa and proventriculus were scored for the presence of gross lesions. The bursa, spleen, and proventriculus were individually weighed and results recorded. Tissues from each of the birds were cut in half, with one half being placed into 10% buffered formalin, and the other half being placed into a sterile sampling bag (Fisher Scientific, Pittsburgh, Pa.). Tissues in sterile sampling bags were frozen at −20° C. for later analysis utilizing IBDV Antigen Capture ELISA(AC-ELISA), as described by Snyder et al (138).\nAC-ELISA test plates were prepared as described earlier in Section 1. Tissues were homogenized in AC-ELISA dilution buffer at a ratio of 1:5 tissue weight to volume. Homogenates were analyzed in duplicate against IBDV monoclonal B-29 AC-ELISA plates as described earlier in Section 1. Plates were read and means were calculated for the paired samples within each group and the homogenates were determined to be positive or negative based on the mean absorbance values as compared to the negative and positive controls on each plate."}, "[2]": {"system": "SPF white leghorn chickens", "test": "Microscopic (histopathological) lesions in bursa and proventriculus", "conditions": "for Microscopic lesions in the bursa, samples with lesions/screened / Microscopic lesions in the proventriculus, samples with lesions/screened: challenge at 28 d post hatch ± REO S-1133 and/or copper sulfate", "description": "Tissues were placed in 10% buffered formalin at necropsy. Twenty-four hours later tissues were removed and manually trimmed to a thickness of ⅛ inch and placed in tissue cassettes. Tissues were dehydrated through graded alcohols, and cleared in two changes of toluene. Tissues were then infiltrated with paraffin over a 16-hour period using an autoprocessor. Following paraffin infiltration, tissues were positioned in paraffin blocks and trimmed to expose a uniform tissue face. Prepared tissue blocks were stored at −20° C. until ready to be sectioned. Sections were cut at a thickness of 5μm and floated on a water bath containing 5% gelatin before they were placed on standard 1×3 inch slides. Tissue sections were then stained using the standard method of Harris (41), for hematoxylin and eosin.\nTissues were examined microscopically for the presence of histopathological lesions induced by IBDV infection. […] Lesions in the bursa were predominantly lymphoid depletion with accompanied follicle degeneration Tissues were given a numerical index score based on the presence or absence of lesions as well as the intensity of the lesions. The scores ranged from a low of “0” which indicates no lesions or pathology observed to a high of “4” which indicates extensive tissue damage.\n(§2) Tissues were placed in buffered formalin at necropsy, and processed twenty-four hours later by the method described in Section 1 (55). Tissues were examined for the presence of histopathological lesions induced by IBDV infection. Lesions in the lamina propria of the proventriculus were predominantly pleomorphism of the lymphoid cells in the mucosa along with lymphocyte depletion. Lesions in the bursa were predominantly lymphoid depletion with accompanied follicle degeneration.\n(§3) Tissues were given a numerical index score based on the presence or absence as well as the intensity of the lesions present. The score ranged from a low of “0” which indicates no lesions or pathology observed to a high of “4” which indicates extensive tissue damage.\nTissues were placed in buffered formalin at necropsy, and processed twenty-four hours later by the method described in Section 1 (55). Tissues were examined for the presence of histopathological lesions induced by IBDV infection. Tissues were given a numerical index score based on the presence or absence as well as the intensity of the lesions present. The score ranged from a low of “0” which indicates no lesions or pathology observed to a high of “4” which indicates extensive tissue damage.\nTissues were placed in buffered formalin at necropsy, and processed twenty-four hours later by the method described in Section 1 (55). Tissues were examined for the presence of histopathological lesions induced by IBDV infection."}, "[3]": {"system": "SPF white leghorn chickens", "test": "TUNEL staining for apoptotic cells in bursa and proventriculus", "parameters": "key: + indicates the presence of specific fluorescence following TUNEL staining; ++: multiple “+'s” indicate visual intensity assessment; +++: multiple “+'s” indicate visual intensity assessment; ++++: multiple “+'s” indicate visual intensity assessment; −: scored as positive when present and negative when absent", "conditions": "4 days post challenge", "description": "Formalin fixed tissues from experiments described in Section 3 were utilized in this staining procedure. All tissues utilized were harvested at 4 days post challenge with a 1× concentration of USDA/STC IBDV or Variant E/11084 IBDV. Tissues from specific birds were selected following an initial screening with hematoxylin and eosin stained sections. Tissue preparation and sectioning were as follows. Tissues were placed in 10% buffered formalin at necropsy. Twenty-four hours later tissues were removed, manually trimmed to a thickness of ⅛ inch and placed in tissue cassettes. Tissues were dehydrated through graded alcohols and cleared in two changes of toluene. Tissues were then infiltrated with paraffin over a 16 hour period using an autoprocessor. Following paraffin infiltration, tissues were positioned in paraffin blocks and trimmed to expose a uniform tissue face. Prepared tissue blocks were stored at −20° C. until ready to be sectioned. Sections were cut at a thickness of 5 μm and floated on a water bath containing 5% gelatin to facilitate attachment (55). […]\nTissue sections were prepared as described earlier and removed from storage at 4° C. […] Slides were stored at 4° C. overnight before viewing for the presence of fluorescence. Slides were viewed using an Olympus BX50 microscope equipped with a Olympus PM-C35X camera and Omega dye specific fluorescence filters (DAPI 385-395) (FITC 475-497). […]"}, "[4]": {"system": "SPF white leghorn chickens", "test": "Antigen Capture ELISA (AC-ELISA) for IBDV in tissue homogenates of challenged birds", "conditions": "challenge at 28 d post hatch ± REO S-1133 and/or copper sulfate 1 lb/ton", "description": "On days 4 and 11 post challenge 10 birds were necropsied from each virus challenge group as well as an additional 10 birds from the negative control. Each bird was weighed, bled, and euthanized with CO2 gas. All bursae and proventriculi were scored for the presence of gross lesions during necropsy. The bursa, spleen, and proventriculus were individually weighed and weights recorded. Tissues from each of the first five birds were cut in half, with one half being placed into 10% buffered formalin, and the other half being placed into a sterile sampling bag (Fisher Scientific, Pittsburgh, Pa.). All tissues were pooled by organ and experimental treatment group into the buffered formalin and into the sampling bags. Tissues from the remaining five birds were placed only in the sterile sampling bags. Tissues in sterile sampling bags were frozen at −20° C. for later analysis utilizing Antigen Capture ELISA (AC-ELISA), as described by Snyder et al (11).\nMonoclonal antibody B-29 (University of Maryland, College Park, Md., Intervet Inc. , Millsboro, Del.) was diluted 1:10 in ice cold sterile distilled water. The solution was then acidified by the addition of 0.4 N sulfuric acid. The acidified monoclonal solution was incubated in an ice bath for one hour […]. Following incubation the acidified monoclonal antibody was diluted in 200 ml of coating buffer bringing the final dilution of monoclonal antibody to 1:10,000. ELISA optimized 96 well microtiter plates Corning #25805-96 (Corning Glass Works, Corning N.Y. 14831) were coated with 100 μl per well of a 1:10,000 dilution of monoclonal antibody B-29 (University of Maryland, College Park, Md.; Intervet, Inc., Millsboro Del.) ascitic fluid in coating buffer (Appendix). Plates were covered with individual plate sealers (Dynatech, Chantilly Va.), and incubated for 2 hours at 37° C. and then overnight at 4° C. Coated plates were washed three times with washing buffer (Appendix), with residual fluid being tapped out. Plates were allowed to air dry at room temperature and were then covered with individual plate sealers and stored at −20° C. until needed.\nInfectious bursal disease virus suspect tissues were homogenized in AC-ELISA dilution buffer (Appendix) at a ratio of 1:5 or approximately 20% tissue weight to volume. Homogenization was accomplished by use of a rubber mallet, followed by the addition of the dilution buffer. One hundred fifty μl of each bursal homogenate and 300 μl of each proventricular homogenate were placed in duplicate in a 96 well round bottom plate. The concentration of the bursa tissue was adjusted by addition of 150 μl of AC-ELISA dilution buffer. There was no additional dilution to the proventriculus tissue homogenates. […]"}, "[5]": {"system": "SPF white leghorn chickens", "test": "Body weight after virus challenge", "description": "as §1, with “challenge 10” for “challenge 25”, “the bursa,” for “the bursa”\nAll data was entered into Microsoft™ Excel (Microsoft Corp., Redmond, Wash.). and were analyzed using SAS (10) (SAS Institute Inc., Cary, N.C.). Statistical significance was determined at the P<0.05 level using General Linear Models Procedure and least squared means for body weight, bursa: body weight ratios, spleen: body weight ratios, and proventriculus: body weight ratios. In addition, statistical differences were determined for means of the numerical index scores for gross lesions in the bursa and proventriculus."}, "[6]": {"system": "commercial broiler chickens", "test": "Microscopic lesions in bursa and proventriculus of broilers", "conditions": "broilers challenged 35 d post hatch", "description": "as §2, §3"}},
  "data": [
    {"smiles": "O=S(=O)([O-])[O-].[Cu+2]", "note": "[NC + CS, copper sulfate]", "values": [
      {"measurement": "AC-ELISA bursal homogenates, positive/tested", "setting": "[1]; day 4 post challenge", "value": "0/10"},
      {"measurement": "AC-ELISA proventricular homogenates, positive/tested", "setting": "[1]; day 4 post challenge", "value": "0/10"},
      {"measurement": "AC-ELISA bursal homogenates, positive/tested", "setting": "[1]; day 11 post challenge", "value": "0/10"},
      {"measurement": "AC-ELISA proventricular homogenates, positive/tested", "setting": "[1]; day 11 post challenge", "value": "0/10"},
      {"measurement": "Microscopic lesions in the bursa, samples with lesions/screened", "setting": "[2]; day 4 post challenge", "value": "0/10"},
      {"measurement": "Microscopic lesions in the proventriculus, samples with lesions/screened", "setting": "[2]; day 4 post challenge", "value": "0/10"},
      {"measurement": "Microscopic lesions in the bursa, samples with lesions/screened", "setting": "[2]; day 11 post challenge", "value": "0/10"},
      {"measurement": "Microscopic lesions in the proventriculus, samples with lesions/screened", "setting": "[2]; day 11 post challenge", "value": "0/10"},
      {"measurement": "Lesions in the proventriculus, gross or microscopic", "setting": "[2]; dietary copper levels used, without virus", "value": "no lesions in the proventriculus either gross or microscopic"},
      {"measurement": "TUNEL staining, bursa", "setting": "[3]", "value": "−"},
      {"measurement": "TUNEL staining, proventriculus", "setting": "[3]", "value": "−"},
      {"measurement": "AC-ELISA bursal homogenates, positive/tested", "setting": "[4]; day 4 post challenge", "value": "0/10"},
      {"measurement": "AC-ELISA proventricular homogenates, positive/tested", "setting": "[4]; day 4 post challenge", "value": "0/10"},
      {"measurement": "AC-ELISA bursal homogenates, positive/tested", "setting": "[4]; day 11 post challenge", "value": "0/10"},
      {"measurement": "AC-ELISA proventricular homogenates, positive/tested", "setting": "[4]; day 11 post challenge", "value": "0/10"},
      {"measurement": "Body weight gain vs negative control", "setting": "[5]; between day 4 and day 11 post challenge", "value": "significantly lower"},
      {"measurement": "Day 11 body weight means vs negative control", "setting": "[5]; day 11 post challenge", "value": "significantly different"},
      {"measurement": "Microscopic lesions in the bursa", "setting": "[6]; day 4 post challenge", "value": "0/10"},
      {"measurement": "Microscopic lesions in the proventriculus", "setting": "[6]; day 4 post challenge", "value": "0/10"},
      {"measurement": "Microscopic lesions in the bursa", "setting": "[6]; day 11 post challenge", "value": "9/10"},
      {"measurement": "Microscopic lesions in the proventriculus", "setting": "[6]; day 11 post challenge", "value": "0/10"}
    ]}
  ]
}
